Experimental data reported in patent US11051515B2, “3-acyl-benzamides and their use as herbicides” (Bayer Aktiengesellschaft, priority 2017, dated 2021).

Legend:
SETVI [1] = assay: Pre-emergence action against SETVI; type: in vivo, Setaria viridis; conditions: pre-emergence, dosage 320 g/ha, scored visually after 3 weeks vs untreated controls
Procedure, shortened: (§1)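 Seeds sown in sandy loam in wood-fiber pots and covered with soil. Greenhouse growth; visual damage scored after 3 weeks versus untreated controls (100% = dead, 0% = like control).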

AVEFA [2] = assay: Post-emergence action against AVEFA; type: in vivo, Avena fatua; conditions: post-emergence, dosage 80 g/ha, visual assessment about 3 weeks after treatment vs untreated controls
Procedure, shortened: (§2)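 Weeds grown in sandy loam in greenhouse, treated at one-leaf stage (2–3 weeks after sowing) with WP or EC formulations sprayed as aqueous suspension/emulsion at 600 to […] water with 0.2% wetting agent. Visual rating after about 3 weeks versus untreated controls, as % herbicidal action (100% = plants dead, 0% = like control).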

AVEFA [3] = assay: Pre-emergence action against AVEFA; type: in vivo, Avena fatua; conditions: dosage 320 g/ha, scored visually after 3 weeks vs untreated controls
Procedure, shortened: as §1

STEME [4] = assay: Post-emergence action against STEME; type: in vivo, Stellaria media; conditions: post-emergence, dosage 80 g/ha
Procedure, shortened: as §2

ECHCG [5] = assay: Post-emergence action against ECHCG; type: in vivo, Echinochloa crus-galli; conditions: post-emergence, dosage 80 g/ha, visual assessment about 3 weeks after treatment vs untreated controls
Procedure, shortened: as §2

POLCO [6] = assay: Post-emergence action against POLCO; type: in vivo, Polygonum convolvulus; conditions: post-emergence, dosage 80 g/ha
Procedure, shortened: as §2

MATIN [7] = assay: Pre-emergence action against MATIN; type: in vivo, Matricaria inodora; conditions: Dosage 320 g/ha, pre-emergence
Procedure, shortened: as §1

POLCO [8] = assay: Pre-emergence action against POLCO; type: in vivo, Polygonum convolvulus; conditions: Fallopia convolvulus, 504 h; Dosage 320 g/ha, pre-emergence
Procedure, shortened: as §1

ECHCG [9] = assay: Pre-emergence action against ECHCG; type: in vivo, Echinochloa crus-galli; conditions: pre-emergence, dosage 320 g/ha, scored visually after 3 weeks vs untreated controls
Procedure, shortened: as §1

LOLMU [10] = assay: Pre-emergence action against LOLMU; type: in vivo, Lolium multiflorum; conditions: dosage 320 g/ha, scored visually after 3 weeks vs untreated controls
Procedure, shortened: as §1

LOLMU [11] = assay: Post-emergence action against LOLMU; type: in vivo, Lolium multiflorum; conditions: dosage 80 g/ha, visual assessment about 3 weeks after treatment vs untreated controls
Procedure, shortened: as §2

CYPES [12] = assay: Post-emergence action against CYPES; type: in vivo, Cyperus esculentus; conditions: post-emergence, dosage 80 g/ha, visual assessment about 3 weeks after treatment vs untreated controls
Procedure, shortened: as §2

VERPE [13] = assay: Pre-emergence action against VERPE; type: in vivo, Veronica persica; conditions: Dosage 320 g/ha, pre-emergence
Procedure, shortened: as §1

ALOMY [14] = assay: Pre-emergence action against ALOMY; type: in vivo, Alopecurus myosuroides; conditions: dosage 320 g/ha, pre-emergence, scored visually after 3 weeks vs untreated controls, 100% = plants have died, 0% = like control plants
Procedure, shortened: as §1

VERPE [15] = assay: Post-emergence action against VERPE; type: in vivo, Veronica persica; conditions: dosage 80 g/ha
Procedure, shortened: as §2

VIOTR [16] = assay: Pre-emergence action against VIOTR; type: in vivo, Viola tricolor; conditions: Dosage 320 g/ha, pre-emergence
Procedure, shortened: as §1

MATIN [17] = assay: Post-emergence action against MATIN; type: in vivo, Matricaria inodora; conditions: post-emergence, dosage 80 g/ha, visual assessment about 3 weeks after treatment vs untreated controls
Procedure, shortened: as §2

STEME [18] = assay: Pre-emergence action against STEME; type: in vivo, Stellaria media; conditions: Dosage 320 g/ha, pre-emergence
Procedure, shortened: as §1

CYPES [19] = assay: Pre-emergence action against CYPES; type: in vivo, Cyperus esculentus; conditions: pre-emergence, dosage 320 g/ha, scored visually after 3 weeks vs untreated controls
Procedure, shortened: as §1

SETVI [20] = assay: Post-emergence action against SETVI; type: in vivo, Setaria viridis; conditions: post-emergence, dosage 80 g/ha, visual assessment about 3 weeks after treatment vs untreated controls
Procedure, shortened: as §2

ALOMY [21] = assay: Post-emergence action against ALOMY; type: in vivo, Alopecurus myosuroides; conditions: Dosage 80 g/ha, post-emergence
Procedure, shortened: as §2

ABUTH [22] = assay: Pre-emergence action against ABUTH; type: in vivo, Abutilon theophrasti; conditions: pre-emergence, dosage 320 g/ha, scored visually after 3 weeks vs untreated controls
Procedure, shortened: as §1

AMARE [23] = assay: Pre-emergence action against AMARE; type: in vivo, Amaranthus retroflexus; conditions: pre-emergence, dosage 320 g/ha, scored visually after 3 weeks vs untreated controls
Procedure, shortened: as §1

ABUTH [24] = assay: Post-emergence action against ABUTH; type: in vivo, Abutilon theophrasti; conditions: post-emergence, dosage 80 g/ha, visual assessment about 3 weeks after treatment vs untreated controls
Procedure, shortened: as §2

VIOTR [25] = assay: Post-emergence action against VIOTR; type: in vivo, Viola tricolor; conditions: post-emergence, dosage 80 g/ha
Procedure, shortened: as §2

PHBPU [26] = assay: Post-emergence action against PHBPU; type: in vivo, Pharbitis purpurea; conditions: post-emergence, dosage 80 g/ha
Procedure, shortened: as §2

AMARE [27] = assay: Post-emergence action against AMARE; type: in vivo, Amaranthus retroflexus; conditions: post-emergence, dosage 80 g/ha, visual assessment about 3 weeks after treatment vs untreated controls
Procedure, shortened: as §2

PHBPU [28] = assay: Pre-emergence action against PHBPU; type: in vivo, Pharbitis purpurea; conditions: Dosage 320 g/ha, pre-emergence
Procedure, shortened: as §1

CC(=O)c1c(Cl)ccc(C(=O)Nc2nnnn2C)c1Cl [1-114]
80%: pest or weed control at 80 g/ha (CYPES [12]; Cyperus esculentus, 504 h, read-out: Post-emergence action against CYPES (herbicidal action in percent)) | pest or weed control at 80 g/ha (MATIN [17]; Tripleurospermum inodorum, 504 h, read-out: Post-emergence action against MATIN (herbicidal action in percent)) | pest or weed control at 80 g/ha (SETVI [20]; Setaria viridis, 504 h, read-out: Post-emergence action against SETVI (herbicidal action in percent)) | pest or weed control at 80 g/ha (ALOMY [21]; Alopecurus myosuroides, 504 h) | pest or weed control at 80 g/ha (ABUTH [24]; Abutilon theophrasti, 504 h, read-out: Post-emergence action against ABUTH (herbicidal action in percent))
100%: pest or weed control at 320 g/ha (SETVI [1]; Setaria viridis, 504 h, read-out: SETVI (Table B8, pre-emergence herbicidal activity)) | pest or weed control at 320 g/ha (AVEFA [3]; Avena fatua, 504 h, read-out: Pre-emergence action against AVEFA (herbicidal activity)) | pest or weed control at 80 g/ha (STEME [4]; Stellaria media, 504 h) | pest or weed control at 320 g/ha (MATIN [7]; Tripleurospermum inodorum, 504 h) | pest or weed control at 320 g/ha (ECHCG [9]; Echinochloa crus-galli, 504 h, read-out: Pre-emergence action against ECHCG (herbicidal activity)) | pest or weed control at 320 g/ha (LOLMU [10]; Lolium multiflorum, 504 h, read-out: Pre-emergence action against LOLMU (herbicidal activity)) | pest or weed control at 80 g/ha (LOLMU [11]; Lolium multiflorum, 504 h, read-out: Post-emergence action against LOLMU (herbicidal action in percent)) | pest or weed control at 320 g/ha (VERPE [13]; Veronica persica, 504 h) | pest or weed control at 80 g/ha (VERPE [15]; Veronica persica, 504 h) | pest or weed control at 320 g/ha (VIOTR [16]; Viola tricolor, 504 h) | pest or weed control at 320 g/ha (CYPES [19]; Cyperus esculentus, 504 h, read-out: Pre-emergence action against CYPES (herbicidal activity)) | pest or weed control at 320 g/ha (ABUTH [22]; Abutilon theophrasti, 504 h, read-out: Pre-emergence action against ABUTH (herbicidal activity)) | pest or weed control at 320 g/ha (AMARE [23]; Amaranthus retroflexus, 504 h, read-out: Pre-emergence action against AMARE (herbicidal activity))
90%: pest or weed control at 80 g/ha (AVEFA [2]; Avena fatua, 504 h, read-out: Post-emergence action against AVEFA (herbicidal action in percent)) | pest or weed control at 80 g/ha (ECHCG [5]; Echinochloa crus-galli, 504 h, read-out: Post-emergence action against ECHCG (herbicidal action in percent)) | pest or weed control at 80 g/ha (POLCO [6]; Fallopia convolvulus, 504 h) | pest or weed control at 320 g/ha (POLCO [8]) | pest or weed control at 320 g/ha (ALOMY [14]; Alopecurus myosuroides, 504 h, read-out: Pre-emergence action against ALOMY (herbicidal activity in percent)) | pest or weed control at 320 g/ha (STEME [18]; Stellaria media, 504 h) | pest or weed control at 80 g/ha (VIOTR [25]; Viola tricolor, 504 h) | pest or weed control at 80 g/ha (PHBPU [26]; Ipomoea purpurea, 504 h)

CCC(=O)c1c(C(F)(F)F)ccc(C(=O)Nc2nnnn2CC)c1C [2-15]
90%: Post-emergence action against ECHCG (herbicidal action in percent) (ECHCG [5]) | Post-emergence action against AMARE (herbicidal action in percent) (AMARE [27]) | Post-emergence action against LOLMU (herbicidal action in percent) (LOLMU [11]) | Post-emergence action against CYPES (herbicidal action in percent) (CYPES [12]) | Post-emergence action against MATIN (herbicidal action in percent) (MATIN [17]) | Pre-emergence action against CYPES (herbicidal activity) (CYPES [19])
100: Post-emergence action against STEME (STEME [4]) | Post-emergence action against POLCO (POLCO [6]) | Post-emergence action against VIOTR (VIOTR [25])
90: Post-emergence action against VERPE (VERPE [15])
80%: Post-emergence action against AVEFA (herbicidal action in percent) (AVEFA [2]) | Pre-emergence action against PHBPU (PHBPU [28])
100%: SETVI (Table B8, pre-emergence herbicidal activity) (SETVI [1]) | Pre-emergence action against AVEFA (herbicidal activity) (AVEFA [3]) | Pre-emergence action against MATIN (MATIN [7]) | Pre-emergence action against ECHCG (herbicidal activity) (ECHCG [9]) | Pre-emergence action against LOLMU (herbicidal activity) (LOLMU [10]) | Pre-emergence action against VERPE (VERPE [13]) | Pre-emergence action against ALOMY (herbicidal activity in percent) (ALOMY [14]) | Pre-emergence action against VIOTR (VIOTR [16]) | Pre-emergence action against STEME (STEME [18]) | Post-emergence action against SETVI (herbicidal action in percent) (SETVI [20]) | Post-emergence action against ALOMY (ALOMY [21]) | Pre-emergence action against ABUTH (herbicidal activity) (ABUTH [22]) | Pre-emergence action against AMARE (herbicidal activity) (AMARE [23]) | Post-emergence action against ABUTH (herbicidal action in percent) (ABUTH [24])
80: Post-emergence action against PHBPU (PHBPU [26])

CCn1nnnc1NC(=O)c1ccc(S(C)(=O)=O)c(C(=O)C2CC2)c1Cl [2-129]
100%: SETVI (Table B8, pre-emergence herbicidal activity) (SETVI [1]) | Post-emergence action against AVEFA (herbicidal action in percent) (AVEFA [2]) | Pre-emergence action against AVEFA (herbicidal activity) (AVEFA [3]) | Pre-emergence action against MATIN (MATIN [7]) | Post-emergence action against AMARE (herbicidal action in percent) (AMARE [27]) | Pre-emergence action against ECHCG (herbicidal activity) (ECHCG [9]) | Pre-emergence action against VERPE (VERPE [13]) | Pre-emergence action against VIOTR (VIOTR [16]) | Post-emergence action against MATIN (herbicidal action in percent) (MATIN [17]) | Pre-emergence action against STEME (STEME [18]) | Pre-emergence action against CYPES (herbicidal activity) (CYPES [19]) | Post-emergence action against SETVI (herbicidal action in percent) (SETVI [20]) | Post-emergence action against ALOMY (ALOMY [21]) | Pre-emergence action against ABUTH (herbicidal activity) (ABUTH [22]) | Pre-emergence action against AMARE (herbicidal activity) (AMARE [23])
100: Post-emergence action against STEME (STEME [4]) | Post-emergence action against POLCO (POLCO [6]) | Post-emergence action against VERPE (VERPE [15]) | Post-emergence action against VIOTR (VIOTR [25]) | Post-emergence action against PHBPU (PHBPU [26])
80%: Post-emergence action against CYPES (herbicidal action in percent) (CYPES [12]) | Post-emergence action against ABUTH (herbicidal action in percent) (ABUTH [24])
90%: Post-emergence action against ECHCG (herbicidal action in percent) (ECHCG [5]) | Pre-emergence action against LOLMU (herbicidal activity) (LOLMU [10]) | Post-emergence action against LOLMU (herbicidal action in percent) (LOLMU [11]) | Pre-emergence action against ALOMY (herbicidal activity in percent) (ALOMY [14])
